Data reported in patent US8906868B2, “Aminoglycoside derivatives” (Rempex Pharmaceuticals, Inc., priority 2010, dated 2014).
Values after ≈ are worked out from the molar mass of the structure shown. Read-outs that look alike come from different tables or passages of the source.

Columns and labels:
mice = experiment: Acute toxicity in mice (minimal lethal dose); format: in vivo; conditions: IV tail vein, observed 24 hours, lowest dose lethal for at least one mouse
Protocol: The acute toxicity of 44 was compared to that of 45 in mice. Ascending doses of each compound were administered to mice (n=3) IV through the tail vein. […] Acute toxicity was reported as the minimal lethal dose, or MLD, defined as the lowest dose of a compound that is lethal for at least one mouse.

[1] = system: Escherichia coli (ATCC 25922); experiment: MIC, broth microdilution; conditions: Escherichia coli
EC1002 aph(3′)-IV = experiment: organism not typed; format: cell-based; conditions: read-out: Compound MIC on Bacterial Strains: EC1002 aph(3′)-IV
Outline: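 MICs came from optical density at 600 nm after 18 hours at 35° C, with visual confirmation. Compounds were serially diluted 2-fold in cation-adjusted Mueller Hinton broth and inoculated at 5×10^5 CFU/ml following CLSI guidelines.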

[2] = system: Escherichia coli EC1003 aac(3)I; experiment: MIC, strains expressing aminoglycoside modifying enzymes; format: cell-based; conditions: read-out: MIC Escherichia coli EC1003 aac(3)I
Protocol: (§1) To compare microbiological activity of the test compounds, minimum inhibitory concentrations (MIC.s) were determined. Antibiotic MICs were obtained using the broth microdilution method according to Clinical and Laboratory Standards Institute (CLSI) approved guidelines (Methods for dilution antimicrobial susceptibility tests for bacteria that grow aerobically; approved standard—7th ed. CLSI document M7-A7. Clinical and Laboratory Standards Institute, Wayne, Pa., incorporated herein by reference in its entirety). Antibiotics were dissolved as specified by CLSI (Performance standards for antimicrobial susceptibility testing; Seventeenth informational supplement. CLSI document M100-S17. Clinical and Laboratory Standards Institute, Wayne, Pa., incorporated herein by reference in its entirety), and were serially diluted 2-fold in cation adjusted Mueller Hinton Broth (CaMHB) at 2× concentration. Bacterial inoculums were prepared in CaMHB by suspension of a colony from an agar plate that was prepared the previous day to obtain a final concentration of 5×10^5CFU/ml. The plates were incubated for 18 hours at 35° C. […] MIC.s were determined by reading the turbidity of plate wells using a SpectraMax Plus384 plate reader (Molecular Devices, Sunnyvale, Calif., USA) at 600 nm and were confirmed by visual inspection.

[3] = system: Escherichia coli ECM6012 armA; experiment: as above; format: cell-based; conditions: ECM6012ARMA, read-out: MIC Escherichia coli ECM6012 armA
Protocol: as §1

[4] = system: Providencia stuartii PSM1000 aac(2′); experiment: as above; format: cell-based; conditions: read-out: MIC Providencia stuartii PSM1000 aac(2′)
Protocol: as §1

[5] = system: Acinetobacter spp. AB1051 aph(3′)VI; experiment: as above; format: cell-based; conditions: read-out: MIC Acinetobacter spp. AB1051 aph(3′)VI
Protocol: as §1

[6] = system: Pseudomonas aeruginosa pa1060 ant(2″); experiment: as above; format: cell-based; conditions: read-out: MIC Pseudomonas aeruginosa pa1060 ant(2″)
Protocol: as §1

[7] = system: Escherichia coli ECM6004 aac(2′); experiment: as above; format: cell-based; conditions: read-out: MIC Escherichia coli ECM6004 aac(2′)
Protocol: as §1

[8] = system: Pseudomonas aeruginosa pa1061 aac(6′) (no efflux); experiment: as above; format: cell-based; conditions: read-out: MIC Pseudomonas aeruginosa pa1061 aac(6′) (no efflux)
Protocol: as §1

[9] = system: Pseudomonas aeruginosa pa1062 aac(3)-I; experiment: as above; format: cell-based; conditions: read-out: MIC Pseudomonas aeruginosa pa1062 aac(3)-I
Protocol: as §1

[10] = system: Escherichia coli ECM6008 aac(3)-I, ant(3″); experiment: as above; format: cell-based; conditions: read-out: MIC Escherichia coli ECM6008 aac(3)-I, ant(3″)
Protocol: as §1

[11] = system: Acinetobacter baumannii ACM1008 aac(3)-Ia; experiment: as above; format: cell-based; conditions: read-out: MIC Acinetobacter baumannii ACM1008 aac(3)-Ia
Protocol: as §1

[12] = system: Escherichia coli ECM6005 aac(3)-II, aph(3′)-II; experiment: as above; format: cell-based; conditions: read-out: MIC Escherichia coli ECM6005 aac(3)-II, aph(3′)-II
Protocol: as §1

ECM6003 rmtB = experiment: microbe, parasite or virus in culture; format: cell-based, Escherichia coli; conditions: Escherichia coli
Outline: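 Broth microdilution per CLSI M7-A7 in cation-adjusted Mueller Hinton broth with 2-fold serial dilutions and 5×10^5 CFU/ml inoculum. Incubated 18 hours at 35 °C; MIC read by turbidity at 600 nm and confirmed visually.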

[13] = system: 143 clinical isolates of various species of Enterobacteriacea; experiment: MIC against clinical isolates of Enterobacteriacea; format: cell-based; conditions: for MIC50: MIC of 50% population; for MIC50 / MIC90: 143 clinical isolates of Enterobacteriacea; for MIC90: MIC of 90% population; for share of strains of Enterobacteriacae in which the compound was more potent than the other (44 vs. 45): by ratio of MICs
Protocol: as §1
Table 9 summarizes results of testing 44 and 45 against 143 clinical isolates of various species of Enterobacteriacea.

PAM3073 aac(6′)-I = experiment: microbe, parasite or virus in culture; format: cell-based, Pseudomonas aeruginosa; conditions: Pseudomonas aeruginosa
Outline: (§2)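 MICs came from well turbidity at 600 nm, checked by eye, after 18 hours at 35° C. Bacteria at a final 5×10^5 CFU/ml were exposed to 2-fold dilution series in cation-adjusted Mueller Hinton broth following CLSI methods.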

PAM3072 aac(6′)-II = experiment: microbe, parasite or virus in culture; format: cell-based, Pseudomonas aeruginosa; conditions: Pseudomonas aeruginosa
Outline: as §2

[14] = system: Pseudomonas aeruginosa (ATCC 27853); experiment: MIC, broth microdilution; conditions: Pseudomonas aeruginosa
EC1001 acc(6′)-Ib = experiment: microbe, parasite or virus in culture; format: cell-based, Escherichia coli; conditions: Escherichia coli
Outline: as §2

[15] = system: ECM6007 aac(6′) + aph(2″); experiment: microbe, parasite or virus in culture; format: cell-based, Escherichia coli; conditions: Escherichia coli
Outline: as §2

[16] = ATCC25922, read-out: Compound MIC on Bacterial Strains: E. coli ATCC 25922
[17] = ATCC25922, read-out: Compound MIC on Bacterial Strains: ECM6000 ATCC 25922
[18] = ATCC25922, read-out: Compound MIC on Bacterial Strains: Escherichia coli ECM6000 ATCC 25922
[19] = ATCC25922, read-out: MIC Escherichia coli ECM6025 ATCC 25922
[20] = Table 3, read-out: Compound MIC on Bacterial Strains: ECM6003 rmtB
[21] = Table 8, read-out: MIC Escherichia coli ECM6003 rmtB
[22] = Table 5, read-out: Compound MIC on Bacterial Strains: Pseudomonas aeruginosa PAM3073 aac(6′)-I
[23] = Table 8, read-out: MIC Pseudomonas aeruginosa PAM3073 aac(6′)-I, wt efflux
[24] = Table 5, read-out: Compound MIC on Bacterial Strains: Pseudomonas aeruginosa PAM3072 aac(6′)-II
[25] = Table 8, read-out: MIC Pseudomonas aeruginosa PAM3072 aac(6′)-II or III
[26] = ATCC27853, read-out: Compound MIC on Bacterial Strains: P. aeruginosa ATCC 27853
[27] = ATCC27853, read-out: Compound MIC on Bacterial Strains: Pseudomonas aeruginosa PAM3034 ATCC 27853
[28] = ATCC27853, read-out: MIC Pseudomonas aeruginosa PAM3034 ATCC 27853
[29] = Table 4, read-out: Compound MIC on Bacterial Strains: Escherichia coli EC1001 acc(6′)-Ib
[30] = Table 8, read-out: MIC Escherichia coli EC1001 aac(6′)-Ib
[31] = 18 h, Table 4, read-out: Compound MIC on Bacterial Strains: Escherichia coli ECM6007 aac(6′) + aph(2″)
[32] = Table 8, read-out: MIC Escherichia coli ECM6007 aac(6′) + aph(2″)

Row | SMILES | minimal lethal dose (MLD) (mice) | MIC [1, 16] | MIC [1, 17] | MIC [1, 18] | MIC [1, 19] | MIC (EC1002 aph(3′)-IV) | MIC [2] | MIC [3] | MIC [4] | MIC [5] | MIC [6] | MIC [7] | MIC [8] | MIC [9] | MIC [10] | MIC [11] | MIC [12] | MIC (ECM6003 rmtB; [20]) | MIC (ECM6003 rmtB; [21]) | MIC50 [13] | further results
1 | CN[C@@H]1C(O)[C@@H](OC2C(O)C(O[C@H]3O[C@H](CNC[C@@H](O)CO)CCC3N)[C@@H](N)C[C@H]2NC(=O)[C@@H](O)CN)OCC1(C)O (stereo partly drawn) [Compound 44] | > 125 mg/kg | < 1 µg/mL | < 1 µg/mL | < 1 µg/mL | < 1 µg/mL | < 1 µg/mL | < 1 µg/mL | > 8 µg/mL | > 8 µg/mL | 1 to 8 µg/mL (≈ 1.64 to 13.1 µM) | < 1 µg/mL | < 1 µg/mL | < 1 µg/mL | > 8 µg/mL | < 1 µg/mL | 1 to 8 µg/mL (≈ 1.64 to 13.1 µM) | < 1 µg/mL | > 8 µg/mL | > 8 µg/mL | 0.5 µg/mL | MIC90 [13]: 2 µg/mL; share of strains of Enterobacteriacae in which the compound was more potent than the other (44 vs. 45) [13]: ~75%; MIC (PAM3073 aac(6′)-I; [22]): 1 to 8 µg/mL (≈ 1.64 to 13.1 µM); MIC (PAM3073 aac(6′)-I; [23]): 1 to 8 µg/mL (≈ 1.64 to 13.1 µM); MIC (PAM3072 aac(6′)-II; [24]): > 8 µg/mL; MIC (PAM3072 aac(6′)-II; [25]): > 8 µg/mL; MIC [14, 26]: 1 to 8 µg/mL (≈ 1.64 to 13.1 µM); MIC [14, 27]: 1 to 8 µg/mL (≈ 1.64 to 13.1 µM); MIC [14, 28]: 1 to 8 µg/mL (≈ 1.64 to 13.1 µM); MIC (EC1001 acc(6′)-Ib; [29]): < 1 µg/mL; MIC (EC1001 acc(6′)-Ib; [30]): < 1 µg/mL; MIC [15, 31]: < 1 µg/mL; MIC [15, 32]: < 1 µg/mL
2 | CN[C@@H]1[C@@H](O)[C@@H](O[C@@H]2[C@@H](O)[C@H](O[C@H]3O[C@H](CNC[C@H](O)CO)CC[C@H]3N)[C@@H](N)C[C@H]2NC(=O)[C@@H](O)CN)OC[C@]1(C)O [Compound 45, (S)-3-amino-N-((1R,2S,3S,4R,5S)-5-amino-4-((2R,3R,6S)-3-amino-6-(((S)-2,3-dihydroxypropylamino)methyl)tetrahydro-2H-pyran-2-yloxy)-2-((2R,3R,4R,5R)-3,5-dihydroxy-5-methyl-4-(methylamino)tetrahydro-2H-pyran-2-yloxy)-3-hydroxycyclohexyl)-2-hydroxypropanamide] | 100 mg/kg | < 1 µg/mL | < 1 µg/mL | < 1 µg/mL | < 1 µg/mL | 1 to 8 µg/mL (≈ 1.64 to 13.1 µM) | < 1 µg/mL | > 8 µg/mL | > 8 µg/mL | 1 to 8 µg/mL (≈ 1.64 to 13.1 µM) | 1 to 8 µg/mL (≈ 1.64 to 13.1 µM) | < 1 µg/mL | < 1 µg/mL | > 8 µg/mL | 1 to 8 µg/mL (≈ 1.64 to 13.1 µM) | 1 to 8 µg/mL (≈ 1.64 to 13.1 µM) | < 1 µg/mL | > 8 µg/mL | > 8 µg/mL | 1 µg/mL | MIC90 [13]: 2 µg/mL; share of strains of Enterobacteriacae in which the compound was more potent than the other (44 vs. 45) [13]: less than 2%; MIC (PAM3073 aac(6′)-I; [22]): 1 to 8 µg/mL (≈ 1.64 to 13.1 µM); MIC (PAM3073 aac(6′)-I; [23]): 1 to 8 µg/mL (≈ 1.64 to 13.1 µM); MIC (PAM3072 aac(6′)-II; [24]): > 8 µg/mL; MIC (PAM3072 aac(6′)-II; [25]): > 8 µg/mL; MIC [14, 26]: 1 to 8 µg/mL (≈ 1.64 to 13.1 µM); MIC [14, 27]: 1 to 8 µg/mL (≈ 1.64 to 13.1 µM); MIC [14, 28]: 1 to 8 µg/mL (≈ 1.64 to 13.1 µM); MIC (EC1001 acc(6′)-Ib; [29]): 1 to 8 µg/mL (≈ 1.64 to 13.1 µM); MIC (EC1001 acc(6′)-Ib; [30]): 1 to 8 µg/mL (≈ 1.64 to 13.1 µM); MIC [15, 31]: < 1 µg/mL; MIC [15, 32]: < 1 µg/mL
